This note sets out measurements from patent US9133239B2, “Compositions and methods for inhibiting matrix metalloproteinase (MMP)-mediated cell migration” (THE RESEARCH FOUNDATION FOR THE STATE UNIVERSITY OF NEW YORK, priority 2010, dated 2015).

Like-named read-outs stand apart in the source and are kept apart here. Where a SMILES comes first, the peptide text is derived from it. Where no end group is shown, it is not given here.

The subject of assay [1] is cell migration induced by MMP-9. The experiment in a line: Cell migration induced by MMP-9 (specificity). The format is cell-based. The source says: (§1) Based on our studies of the structure-function relationship of the MT1-MMP hemopexin (PEX)-like domain, we designed and synthesized peptides mimicking 8 amino acids of the outermost β strand of blades I, II, III and IV from the PEX domain, named IS4-8 ([…]) (SEQ ID NO:01), IIS4-8 ([…]) (SEQ ID NO:02), and IVS4-8 ([…]) (SEQ ID NO:03), respectively. Corresponding scrambled peptides were synthesized as controls. […] We further designed truncated forms of IS4-8 and IVS-8 peptides from the N- and C-terminus of the peptides. The C-terminal 5 amino acids of the IS4-8, named IS4-5 (GYPMP) (SEQ ID NO:04) is essential for inhibition of functional MT1-MMP. […] Thus, the PEX domain of MT1-MMP is a high-specificity target for interference with MT1-MMP-induced cancer cell invasion and for identification of cancer cells expressing MT1-MMP. These novel bi-functional inhibitory peptides will provide specificity with limited systemic toxicity.
(§2) The term “specifically reduces cell migration that is mediated by MT1-MMP” when in reference to a composition means that the composition reduces cell migration that is mediated by MT1-MMP, in the absence of a reduction of cell migration that is mediated by MMP-9 and/or MT3-MMP and/or MT6-MMP (FIG. 7).

In assay [2] the test system is human breast cancer MCF-7 cells ectopically expressing MT1-MMP. The experiment in a line: proMMP-2 activation by gelatin zymography of conditioned medium. The following applies: MCF-7 cells expressing MT1-MMP. It is filed as cell-based. The source says:
The conditioned medium from human breast cancer MCF-7 cells ectopically expressing MT1-MMP in the presence of scrambled peptides or specific peptides was examined by gelatin zymography to determine whether interference with the PEX domain of MT1-MMP by the peptides also affects the proteolytic activity of MT1-MMP.

Assay [3] has as its system human MDA-MB-231 breast cancer cell.
The subject of assay [4] is human MDA-MB-231, and -435 breast cancer cells (-435). The experiment in a line: Cell migration of MDA-MB-435 cells expressing endogenous MT1-MMP. The format is cell-based.
Source text: as §1

For assay [5], the system named is cell migration induced by MT6-MMP. The assay is described as follows: Cell migration induced by MT6-MMP (specificity). It is filed as cell-based.
Source text: as §1, §2

In assay [6] the test system is COS-1 cells transfected with MT1-MMP cDNA. The assay is described as follows: Cell migration of MT1-MMP transfected COS-1 cells. The format is cell-based.
Source text: as §1

For assay [7], the system named is human MDA-MB-231 breast cancer cells. The experiment in a line: Cell migration of MDA-MB-231 cells expressing endogenous MT1-MMP. It is filed as cell-based.
Source text: as §1

Assay [8] concerns human HT1080 fibrosarcoma cells. The assay is described as follows: Cell migration of HT1080 cells expressing endogenous MT1-MMP. It is filed as cell-based.
Source text: as §1

In assay [9] the test system is cells expressing MT1-MMP. The assay is described as follows: Flow cytometry binding to cells. The note with it: flow cytometry analysis.
Source text: as §1

In assay [10] the test system is MT1-MMP-mediated cell migration (LNCaP). The experiment in a line: FITC-fibronectin degradation assay and Transwell chamber migration assay with GST-MTPEX. The format is cell-based. The source says:
Our results and others emphasized the critical role of the PEX domain of MT1-MMP in cells migration (8,57). […] As proof of this hypothesis, we generated chimeric cDNAs encoding GST and GST-MTPEX chimera.

Assay [11] has as its system GFP expressing MDA-MB-435 cells. The experiment in a line: Mammary fat pad tumor growth and lung metastasis model. It is filed as in vivo, immunodeficient female mice. The following applies: 20 mg/kg/day i.p. and intratumoral alternatively; after twelve weeks. On the procedure: 2×10^6 GFP expressing MDA-MB-435 cells were injected in the mammary fat pad of immunodeficient female mice followed by administering 20 mg/kg/day of specific and scrambled peptides via i.p. and intratumoral injection, alternatively. Primary tumor size was monitored over a 10-week time course. Inhibitory peptides had no effect on tumor growth (A). After twelve weeks, the mice were sacrificed and the organs were pathologically examined. The lungs were sliced into 3 mm thick sections. The incidence of lung metastasis was assessed by examining metastatic tumors in the lungs (B). The number (C) and size (D) of metastasized tumors in the lungs were microscopically counted based on GFP expression and measured using Nikon NIS Elements Imaging software, respectively.

In assay [12] the test system is MT1-GFP expressing LNCaP cells. The assay is described as follows: FITC-labeled Matrigel degradation in the presence of proMMP-2. The format is cell-based, human. The source says:
To examine the role of MT1-MMP in invasion through basement membrane in an in vitro assay, we labeled Matrigel, a soluble basement membrane matrix from the EHS tumor with FITC. Western blotting using anti-type IV collagen and anti-laminin V antibodies confirmed that type IV collagen and laminin V remained intact in FITC-labeled Matrigel. Using FITC-labeled Matrigel-coated coverslips, LNCaP cells producing MT1-GFP were examined for Matrigel degradation. MT1-MMP expressing LNCaP cells readily degraded the FITC-labeled substrate (depicted by loss of fluorescence-labeled Matrigel in FIG. 31A-a).

The test system of assay [13] is MT1-GFP expressing cells. The assay is described as follows: Combined FITC-labeled fibronectin substrate degradation and phagokinetic assay. The format is cell-based. The source says:
Using FITC-labeled gelatin coated coverslips and engineered MT1-MMP substitution mutations, structure-function relationships of MT1-MMP in cell invasion and migration were studied by domain shuffling experiments (FIG. 32A). As expected, MT1-MMP expressing cells degraded FITC-labeled gelatin and migrated over digested substrate (FIG. 32B). […] To examine the effect of proteolytic activity of MT1-MMP on cell migration, we employed a natural MMP inhibitor, TIMP-2 in combined FITC-labeled substrate degradation assay and phagokinetic assay (54) by coating coverslips with both FIT-labeled fibronectin and colloidal gold particles.

Assay [14] has as its system MT1-GFP expressing LNCaP cells. The experiment in a line: Cell surface E-cadherin shedding. The format is cell-based, human. On the procedure: To examine if shedding of E-cadherin at cell-cell adherens junctions correlated with loss of cell surface E-cadherin, biotinylation of cell surface proteins followed by streptavdin precipitation and Western blotting using anti-E-cadherin antibody was performed (51).

In assay [15] the test system is MT1-GFP expressing LNCaP cells. The assay is described as follows: Cell scattering in 3D type I collagen gel. The format is cell-based, human. The note with it: TIMP-2 10 nM. The source says: Although increasing evidence highlight the importance of proteolytic remodeling of the ECM during invasion (65,66), recent reports have challenged this concept showing that the ability of tumor cells to migrate through collagenous barriers by switching to an amoeboid-like form was independent on proteinases (67). This observation, however, was possible due to reversible MMP inhibitors and low concentration of inhibitors (68). […] Employing a 3-dimensional (3D) culture in native type I collagen gel, we examined the cell scattering effect of MT1-GFP. […] GFP-alone expressing LNCaP cells formed spherical aggregates (FIG. 37A-a2-a3), while MT-GFP expressing LNCaP cells presented a scattered distribution in the gels (FIG. 37-b2-b3). H & E staining of frozen sections confirmed this observation (FIG. 37A-a4,b4).

As usually defined, the IC50 is the concentration that gives 50% inhibition. Consider `CSCC[C@H](NC(=O)[C@@H](N)C(C)C)C(=O)N[C@@H](CC(=O)O)C(=O)NCC(=O)N[C@@H](Cc1ccc(O)cc1)C(=O)N1CCC[C@H]1C(=O)N[C@@H](CCSC)C(=O)N1CCC[C@H]1C(=O)O` [IS4-8] (H-VMDGYPMP-OH; N-terminus and C-terminus assumed), for which, in [1], the “cell migration induced by MMP-9” value is “do not affect cell migration”. Moreover, in assay [2], the “MT1-MMP-induced proMMP-2 activation” value is “specifically inhibited”. In assay [3], this compound had a 50% inhibitory concentration (IC50) of 1500 nM. Further, the cell migration entry in assay [4], in assay [6], in assay [7] and in assay [8] was “reduce cell migration” throughout. Besides, the “cell migration induced by MT6-MMP” value in assay [5] was “do not affect cell migration”.
With “biotinylated IS4-5: biotinylated IS4-5 (GYPMP) peptide used for flow cytometry (also: biotinylated, position not given here)”, the “binding to cells expressing MT1-MMP” value in [9] is “specifically binds to cells expressing MT1-MMP”.
For the compound `CC(C)C[C@H](NC(=O)[C@H](C)NC(=O)[C@H](CO)NC(=O)[C@H](CCCCN)NC(=O)[C@@H]1CCCN1C(=O)[C@H](Cc1ccc(O)cc1)NC(=O)CN)C(=O)N[C@@H](CCCNC(=N)N)C(=O)O` [IVS4-8] (H-GYPKSALR-OH; N-terminus and C-terminus assumed), in [1], the “cell migration induced by MMP-9” value is on record as “do not affect cell migration”. Besides, the IC50 in assay [3] was found to be 10000 nM. The cell migration result in assay [4], in [6], in assay [7] and in assay [8] was “reduce cell migration” throughout. In addition, the “cell migration induced by MT6-MMP” value in assay [5] is recorded as “do not affect cell migration”.
For “GST-tagged MTPEX protein: purified GST fusion protein of the PEX domain of MT1-MMP”, the results for the MT1-MMP-mediated cell migration result in assay [10], in assay [10] (listed as MT1-MMPPEX) and in assay [10] (listed as recombinant MT1-PEX protein) were “inhibited MT1-MMP-mediated cell migration”, “inhibited MT1-MMP-medicated LNCaP cell migration” and “blocked MT1-MMP-mediated cell migration”, respectively.
Take “IS4: MT1-MMP specific inhibitory IS4 peptide given to mice in Example 27; length (IS4-8 or IS4-5) not stated (VMDGYPMP)”: in assay [11], the “lung metastasis (degree/number of metastasized tumors)” value is reported as “reduced” and the “tumor foci area (size) in the lung” value is on record as “tumor sizes in scramble peptide treated mice were noticeably larger”.
For the compound “TIMP-1: recombinant TIMP-1, tissue inhibitor of metalloproteinases used as control inhibitor”, in [12], the “cell migration over Matrigel” value is reported as “did not interfere with cell migration” and the “digestion of FITC-labeled Matrigel” value is listed as “partial inhibition of substrate digestion”.
Turning to “IVS4: MT1-MMP specific inhibitory IVS4 peptide given to mice in Example 27; probably IVS4-8 (GYPKSALR)”, in assay [11], the “lung metastasis (degree/number of metastasized tumors)” value is on record as “reduced” and the “tumor foci area (size) in the lung” value is “tumor sizes in scramble peptide treated mice were noticeably larger”.
Turning to `CSCC[C@H](NC(=O)[C@@H]1CCCN1C(=O)[C@H](Cc1ccc(O)cc1)NC(=O)CN)C(=O)N1CCC[C@H]1C(=O)O` [IS4-5, GYPMP] (H-GYPMP-OH; N-terminus and C-terminus assumed), the “MT1-MMP-induced proMMP-2 activation” value in [2] is given as “specifically inhibited”. In assay [3], this compound gave a concentration for half-maximal inhibition (IC50) of 1500 nM.
On to “tissue inhibitor of matrix metalloproteinase-2 [TIMP-2]”, for which the “substrate degradation (FITC-labeled fibronectin)” value in assay [13] is reported as “interfered with substrate degradation”. In assay [14], the “cell surface E-cadherin shedding” value is “interfered with cell surface E-cadherin shedding”. In assay [12], the “digestion of FITC-labeled Matrigel” value was “totally abolished the digestion of Matrigel”. Besides, the “scattered distribution of cells in type I collagen gel” value in assay [15] is listed as “abolished”.
